Test results as given in patent publication US20260216255A1, “STRAIN OF COLLINSELLA, AND PHARMACEUTICAL COMPOSITION THEREOF” (MOON (GUANGZHOU) BIOTECH CO., LTD., priority 2022, published 2026).

Test system: strain MNH 18574
Assay: Antibiotic sensitivity test by disk diffusion method
Assay type: cell-based, Collinsella sp.
Conditions: for Diameter of inhibition zone: strain MNH 18574
Description: An antibiotic sensitivity test was carried out on the strain MNH 18574 by a disk diffusion method.

| Compound | sensitivity or resistance of strain MNH 18574 to the antibiotic | Diameter of inhibition zone |
| --- | --- | --- |
| CCC[C@@H]1C[C@@H](C(=O)N[C@@H]([C@H]2O[C@H](SC)[C@H](O)[C@@H](O)[C@H]2O)[C@@H](C)O)N(C)C1 [Lincomycin (LIN), Lincomycin] | resistant | 0 mm |
| CO/N=C(\C(=O)N[C@@H]1C(=O)N2C(C(=O)O)=C(CSc3nc(=O)c(=O)[nH]n3C)CS[C@H]12)c1csc(N)n1 [Ceftriaxone (CTR), Ceftriaxone] | resistant | 0 mm |
| O=C(N[C@H](CO)[C@H](O)c1ccc([N+](=O)[O-])cc1)C(Cl)Cl [Chloramphenicol (CLM), Chloramphenicol] | sensitive | 27.64 mm |
| O=C(O)c1cn(C2CC2)c2cc(N3CCNCC3)c(F)cc2c1=O [Ciprofloxacin (CFX), Ciprofloxacin] | resistant | 0 mm |
| CN(C)[C@@H]1C(O)=C(C(N)=O)C(=O)[C@@]2(O)C(O)=C3C(=O)c4c(O)cccc4[C@@](C)(O)[C@H]3C[C@@H]12 [Tetracycline (TET), Tetracycline] |  | 0 mm |
| Penicillin [Penicillin (PEN)] | sensitive | 24.51 mm |
| Trimethoprim-sulfamethoxazole [Trimethoprim-sulfamethoxazole (T/S)] | resistant | 0 mm |
| CC[C@H]1OC(=O)[C@H](C)[C@@H](O[C@H]2C[C@@](C)(OC)[C@@H](O)[C@H](C)O2)[C@H](C)[C@@H](O[C@@H]2O[C@H](C)C[C@H](N(C)C)[C@H]2O)[C@](C)(O)C[C@@H](C)C(=O)[C@H](C)[C@@H](O)[C@]1(C)O [Erythromycin (ERM), Erythromycin] | resistant | 0 mm |
| CC1(C)S[C@@H]2[C@H](NC(=O)[C@H](N)c3ccccc3)C(=O)N2[C@H]1C(=O)O [Ampicillin (AMP), Ampicillin] | resistant | 0 mm |
| Gentamicin [Gentamicin (GEN)] | resistant | 0 mm |
